Molecular target: T1, Human-Renin (Homo sapiens, UniProt P00797)
T1 sequence (P00797 67-406): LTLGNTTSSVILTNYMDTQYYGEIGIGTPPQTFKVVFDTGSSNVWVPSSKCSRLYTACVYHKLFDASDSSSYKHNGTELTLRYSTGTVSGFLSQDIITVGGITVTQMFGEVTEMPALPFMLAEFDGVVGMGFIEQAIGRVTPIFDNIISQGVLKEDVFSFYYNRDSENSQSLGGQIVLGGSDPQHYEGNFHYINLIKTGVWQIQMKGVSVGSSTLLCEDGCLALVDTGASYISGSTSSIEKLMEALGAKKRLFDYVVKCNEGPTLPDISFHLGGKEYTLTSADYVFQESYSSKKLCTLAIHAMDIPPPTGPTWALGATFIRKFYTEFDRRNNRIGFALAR
Test: In vitro test with pure human renin (angiotensin I production from human tetradecapeptide renin substrate, measured by RIA)
Format: biochemical
Details: not given
Experimental: In vitro-Test mit reinem Human-Renin
Der Test wird in Eppendorf Röhrchen durchgeführt. Die Inkubationsmischung besteht aus (1) 100 µl Human-Renin in Puffer A (0,1M Natriumphosphatlösung, pH 7,4, enthaltend 0,1% Rinderserumalbumin, 0,1 % Natriumazid und 1 mM Aethylendiamintetraessigsäure), genügend für eine Renin-Aktivität von 2-3 ng Angiotensin I/ ml/Std.; (2) 145 µl Puffer A; (3) 30 µl von 10 µM humanem Tetradekapeptid-Reninsubstrat (hTD) in 10 mM Salzsäure; (4) 15 µl Dimethylsulfoxid mit bzw. ohne Hemmer und (5) 10 µl einer 0,03 molaren Lösung von Hydroxychinolinsulfat in Wasser.
Die Proben werden drei Stunden bei 37°C bzw. 4°C in Triplikaten inkubiert. 2 x 100 µl Proben pro Versuchsröhrchen werden dann verwendet, um die Produktion von Angiotensin I via RIA (standard radioimmunoassay; Clinical Assay solid phase kit) zu messen. Kreuzreaktivitäten der verwendeten Antikörper im RIA sind: Angiotensin I 100 %; Angiotensin II 0,0013 %; hTD (Angiotensin I-Val-Ile-His-Ser-OH) 0,09 %. Die Produktion von Angiotensin I wird durch die Differenz zwischen dem Versuch bei 37°C und demjenigen bei 4°C bestimmt.
Folgende Kontrollen werden mitgeführt: • (a) Inkubation von hTD-Proben ohne Renin und ohne Hemmer bei 37°C und 4°C. Die Differenz zwischen diesen beiden Werten ergibt den Grundwert der Angiotensin I-Produktion. • (b) Inkubation von hTD-Proben mit Renin, jedoch ohne Hemmer bei 37°C und 4°C. Die Differenz zwischen diesen Werten ergibt den Maximalwert der Angiotensin I-Produktion.
In jeder Probe wird von der ermittelten Angiotensin I-Produktion der Grundwert der Angiotensin I-Produktion abgezogen. Die Differenz zwischen dem Maximalwert und dem Grundwert ergibt den Wert der maximalen Substrathydrolyse (=100%) durch Renin.
Die Resultate werden als IC₅₀-Werte angegeben, welche diejenige Konzentration des Hemmers bezeichnen, bei welcher die enzymatische Aktivität um 50% gehemmt wird. Die IC₅₀-Werte werden aus einer linearen Regressionskurve aus einem logit-log plot ermittelt.

**Q.** With `CC(C)(C)OC(=O)N1CCC[C@@H]1C(=O)N[C@@H](Cc1ccccc1)C(=O)N[C@@H](Cc1c[nH]cn1)C(=O)N[C@@H](CC1CCCCC1)C(O)CC1CCCCC1` (single isomer, unassigned) [F] as the compound, how does the IC50 read?
**A.** 1 nM

Same assay, conditions: pure human renin, substrate hTD, pH 7,4, incubation 3 h at 37°C vs 4°C, angiotensin I by RIA; IC50 from logit-log plot; read-out: IC₅₀-Werte

**Q.** `C=C[C@H](CC)C[C@H](O)[C@H](CC1CCCCC1)NC(=O)[C@H](Cc1c[nH]cn1)NC(=O)[C@@H](CC(=O)C(C)(C)C)Cc1ccccc1` [C, (S)-N-[(1S,2S,4R)-1-(Cyclohexylmethyl)-4-äthyl-2-hydroxy-5-hexenyl]-α-[(R)-α-(3,3-dimethyl-2-oxobutyl)hydrocinnamamido]imidazol-4-propionamid] was tested. Which IC50 did it give?
**A.** 4.2 nM

**Q.** Which IC50 does the source give for `C=C[C@H](CC)C[C@H](O)[C@H](CC1CCCCC1)NC(=O)[C@H](Cc1cnc[nH]1)NC(=O)[C@H](Cc1ccccc1)CS(=O)(=O)C(C)(C)C` [D, (S)-α-[(S)-α-[(t-Butylsulfonyl)methyl]hydrocinnamamido]-N-[(1S,2S,4R)-1-(cyclohexylmethyl)-4-äthyl-2-hydroxy-5-hexenyl]imidazol-5-propionamid] here?
**A.** 1 nM

**Q.** Which IC50 does the source give for `CCC(F)(CC)C[C@H](O)[C@H](CC1CCCCC1)NC(=O)[C@H](Cc1c[nH]cn1)NC(=O)[C@@H](CC(=O)C(C)(C)C)Cc1ccccc1` [G, (S)-N-[(1S,2S)-1-(Cyclohexylmethyl)-4-äthyl-4-fluor-2-hydroxyhexyl]-α-[(R)-α-(3,3-dimethyl-2-oxobutyl)hydrocinnamamido]imidazol-4-propionamid] here?
**A.** 5 nM

**Q.** With `CC(C)(C)OC(=O)N[C@@H](Cc1ccccc1)C(=O)N[C@@H](Cc1c[nH]cn1)C(=O)N[C@@H](CC1CCCCC1)C(O)CC1CCCCC1` (single isomer, unassigned) [E] as the compound, how does the IC50 read?
**A.** 2.6 nM

**Q.** `C=C[C@H](CC)C[C@H](O)[C@H](CC1CCCCC1)NC(=O)[C@H](Cc1c[nH]cn1)NC(=O)[C@H](Cc1ccccc1)NC(=O)[C@H]1CCCN1C(=O)OC(C)(C)C` [A, t-Butyl (R)-2-[[(S)-α-[[(S)-1-[[(1S,2S,4R)-1-(cyclohexylmethyl)-2-hydroxy-4-äthyl-5-hexenyl]carbamoyl]-2-imidazol-4-yläthyl]carbamoyl]phenäthyl]carbamoyl]-1-pyrrolidincarboxylat] was tested. Which IC50 did it give?
**A.** 0.2 nM

**Q.** For `CCC(CC)C[C@H](O)[C@H](CC1CCCCC1)NC(=O)[C@H](Cc1c[nH]cn1)NC(=O)[C@H](Cc1ccccc1)NC(=O)[C@H]1CCCN1C(=O)OC(C)(C)C` [B, t-Butyl (R)-2-[[(S)-α-[[(S)-1-[[(1S,2S)-1-(cyclohexylmethyl)-2-hydroxy-4-äthylhexyl]carbamoyl]-2-imidazol-4-yläthyl]carbamoyl]phenäthyl]carbamoyl]-1-pyrrolidincarboxylat], which IC50 is on record?
**A.** 1 nM

— patent publication EP0391180A2, “Peptide derivatives of amino acids having a renin-inhibiting effect” (F. HOFFMANN-LA ROCHE AG, priority 1989, dated 1990)
